Experimental data reported in patent publication US5489598A, “Cytoprotection utilizing aryltriazol-3-thiones” (Warner-Lambert Company, priority 1994, dated 1996).

Key:
Mac-1 (CD11b/CD18) = target: T1, Mac-1 (CD11b/CD18) (Homo sapiens, UniProt P05107+P11215); experiment: Human Neutrophil Mac-1 Adhesion Assay (PMN KLH); format: cell-based; conditions: human neutrophils, FMLP-stimulated, KLH coated plates
T1 construct: methodology to isolate neutrophils from ethylenediaminetetraacetic acid (EDTA)-treated venous blood obtained from healthy human volunteers; endogenous in cells; host or cells: neutrophils (PMN) freshly isolated from venous blood of healthy human volunteers
T1 sequence (P05107 23-769, other chains not shown): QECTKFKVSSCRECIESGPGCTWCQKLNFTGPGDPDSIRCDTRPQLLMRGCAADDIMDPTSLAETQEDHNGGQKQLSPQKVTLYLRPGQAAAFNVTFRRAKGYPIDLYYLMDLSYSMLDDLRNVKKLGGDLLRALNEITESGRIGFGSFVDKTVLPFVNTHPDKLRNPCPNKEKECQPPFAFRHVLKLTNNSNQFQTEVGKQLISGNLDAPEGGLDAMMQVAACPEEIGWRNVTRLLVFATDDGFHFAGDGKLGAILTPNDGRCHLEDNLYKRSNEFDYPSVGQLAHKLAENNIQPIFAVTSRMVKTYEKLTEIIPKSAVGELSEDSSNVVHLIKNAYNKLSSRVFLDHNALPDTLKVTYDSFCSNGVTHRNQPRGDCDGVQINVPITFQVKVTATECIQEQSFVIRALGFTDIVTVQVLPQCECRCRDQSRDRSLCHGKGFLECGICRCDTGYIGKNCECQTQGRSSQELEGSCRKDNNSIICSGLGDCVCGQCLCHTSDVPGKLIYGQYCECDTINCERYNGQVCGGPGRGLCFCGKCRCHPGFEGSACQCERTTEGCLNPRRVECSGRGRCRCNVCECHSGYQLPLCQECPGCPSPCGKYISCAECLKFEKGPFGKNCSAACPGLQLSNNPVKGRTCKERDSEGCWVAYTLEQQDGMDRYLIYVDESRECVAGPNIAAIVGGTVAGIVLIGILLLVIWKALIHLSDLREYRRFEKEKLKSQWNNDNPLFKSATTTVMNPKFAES
Protocol: Protocol for Human Neutrophil Mac-1 Adhesion Assay
We evaluated several 5-aryltriazol-3-thiones utilizing methodology similar to that of Ferrante and Thong as described in J. Immunol. […] Namely, we utilized Ferrante and Thong's methodology to isolate neutrophils from ethylenediaminetetraacetic acid (EDTA)-treated venous blood obtained from healthy human volunteers. Keyhole limpet hemocyanin (KLH) coated microtiter plates were prepared as follows:
All pipetting was automated using the Cetus Pro/Pette (Perkin-Elmer; division of Applied Biosystems, Foster, Calif.). KLH, Megathura crenulata; Calbiochem-Novabiochem, La Jolla, Calif., was prepared at a concentration of 0.5 mg/mL in Dulbecco's PBS phosphate buffered saline (PBS) with CA++, pH 7.2 (DPBS).
Microtiter plates are prewashed with 50% EtOH for 1 hour at 37° C., then drained and blotted to dryness. Then 0.3 mL KLH solution was pipetted into each well of the 96 well microtiter plate, covered and incubated overnight at 37° C. Plates are then inverted to drain, blotted to dryness, washed with 0.3 mL cold D-PBS, drained, blotted to dryness, then stored at 4° C. until use.
Procedure for PMN KLH (Mac-1 Adhesion Assay)
On the Pro/Pette system, a treatment plate was placed in plate position 1 (P-1), buffer Micro.trof was placed in plate position 2 (P-2), and a single row of tips in a spare magazine are placed in the tip position on the carriage. Two hundred ten μL aliquots D-PBS are pipetted into all wells (105 μL using Cetus File #18, Micro.trof 3, no mixes, tip row H, no tip change, run twice). Drug plate was placed in plate position 2 (P-2). Donor drug plates were prepared to contain buffer or drug in appropriate wells. Thirty μL drug or D-PBS buffer are pipetted into appropriate wells in the treatment plate in position 1 (P-1) (Cetus File #17, one mix before and after, changing tips) from donor plate. Thirty μL of neutrophils (PMNs) (30 μL of 10^7 cells/mL) were next pipetted from either a Micro.trof 1, position 2 (P-2), or a row of 0.5 mL capacity microcentrifuge tubes (Sarstedt RIA vials) to plate 1 using Cetus File #18, changing tips, one mix (50 μL) before and after. Cells and drug were then incubated for 10 minutes at 37° C. Agonist (e.g., FMLP) or D-PBS buffer (30 μL) were next pipetted to appropriate wells using Cetus File #18 (Micro.trof) or Cetus File #42 (for plate to plate), changing tips and one mix before and after. Cell/drug/agonist mixture was then incubated for 60 minutes at 37° C. After the incubation period, the treatment plate is gently inverted to drain, blotted lightly to dryness on a paper towel. The treatment plate is then washed with 300 μL D-PBS buffer using Cetus File #18, using pump at slow speed, again inverted to drain, and again blotted to dryness. Adherent cells are stained by the addition of 150 μL D-PBS buffer to all wells, using Cetus File #18, Micro.trof 3 no tip change. […] The treatment plate is then incubated overnight at 37° C.
After overnight incubation, the treatment plate is gently inverted to drain, blotted to dryness on paper towel, then gently washed with 300 μL D-PBS buffer using Cetus File #18, using pump at slow sped. The treatment plate is then gently inverted to drain, and blotted to dryness. The washing of the treatment plate is repeated until all excess dye is removed.
The treatment plate is then covered and incubated for 60 minutes at 37° C. After the incubation, 150 μL 50% EtOH is added to each well of the treatment plate using Cetus File #18, Micro.trof 3, mixing three times, changing tips. […]
a. mean unstimulated cell control OD is determined and subtracted from all other values b. mean net stimulated, e.g., FMLP, control values are determined c. mean drug values are determined and percent drug inhibition vs. stimulus control are calculated as follows: [formula] d. IC50 determinations, plotting logdose vs. percent inhibition, are determined by linear regression analysis using the least squares method.

[1] = system: gastric damage (acidified aspirin); experiment: Cytoprotection study: gastric damage by oral acidified aspirin; format: in vivo, Sprague-Dawley rats; conditions: Rattus norvegicus; 1 mg/kg PO, 15 min before oral acidified aspirin 288 mg/kg; female rats
Protocol: Protocol for Cytoprotection Studies
For all studies, random-bred, barrier-raised, SPF, female Sprague-Dawley rats (Charles River Laboratories, Portage, Mich.) weighing 180-300 g were used. Animals were acclimated for at least 1 week prior to the studies and housed in wire bottom cages supplied with macrofiltered fresh tap water and Purina Rat Chow #5012 (Purina Mills Inc., Richmond, Ind.) ad libitum. The animal rooms were kept at 22° C.±1° C. and 50% humidity.
All animals were food fasted for 24 hours and water deprived for 2 or more hours prior to treatment administration. For oral dosing, Aspirin (acetylsalicylic acid, Sigma, St. Louis, Mo.) was dissolved in an aqueous solution of 150 mM HCl (Takeucvhi K., Digestive Disease and Science, 35:178-185 (1990)). Misoprostol was used as a standard. The test compound was dissolved in double glass distilled water, normal saline USP (NS) or the misoprostol phosphate buffer vehicle. All oral doses of misoprostol and test compounds were administered in a volume of 1 mL/animal. All oral dosing was done by gavage using a 3 mL syringe attached to a […], 17 gauge gavage needle.
The test compounds were administered in 1 mL 15 minutes prior to treatment with an oral dose of acidified aspirin (288 mg/kg in 150 mM HCl) given in 1 mL. Stomachs were removed to assess gastric damage 30 minutes after exposure to the damaging agent. The stomach was isolated through a midline incision in the abdomen followed by clamping of the esophagus and duodenum. Seven milliliters of 10% formalin (Fisher Scientific, Fair Lawn, N.J.) was injected into the stomach which was then excised and submerged in formalin for at least 10 minutes. The stomach was then opened along the greater curvature and pinned flat and submerged in formalin overnight. After the forestomach and exterior blood vessels were trimmed away, the tissues were clarified with glycerol (E. M. Science, Gibbstown, N.J.) and flattened between Plexiglass plates. Gastric damage was measured with a Cambridge Instruments LTD., (Cambridge, UK) Quantimet 970 Image Analysis System. Hemorrhagic damage appeared as darkened areas on a background of lighter undamaged tissue. This darker area was detected and surface area measured by the image analyzer. In addition, the complete stomachs were also completely submerged in 0.1N solution of iodine (J. T. Baker Chemical Co., Phillipsburg, N.J.), and the total stomach surface area was determined. The system was calibrated prior to each use with a standard sample. The percent damage and percent protection was computed by the following equation: [formula]

| SMILES | inhibition at 33 µM (Mac-1 (CD11b/CD18)) [%] | IC50 (Mac-1 (CD11b/CD18)) [nM] | inhibition in vivo at 1 mg/kg [1] [%] |
| --- | --- | --- | --- |
| CCn1c(-c2ccc(N)cc2)n[nH]c1=S [Example 2, 5-(4-aminophenyl)-4-ethyl-2,4-dihydro-[1,2,4]triazol-3-thione] | 36.9 |  |  |
| CCn1c(-c2ccc(O)cc2)n[nH]c1=S [Example 4, 5-(4-hydroxyphenyl)-4-ethyl-2,4-dihydro-[1,2,4]triazol-3-thione] |  | 7800 |  |
| CCn1c(S)nnc1-c1ccccc1O [Example 5, 5-(2-hydroxyphenyl)-4-ethyl-2,4-dihydro-[1,2,4]triazol-3-thione] |  | 4300 |  |
| CCn1c(-c2cc(Cl)ccc2N)n[nH]c1=S [Example 6, 5-(2-amino-5-chlorophenyl)-4-ethyl-2,4-dihydro-[1,2,4]triazol-3-thione] |  | 800 | 55.1 |
| CCn1c(-c2cc(OC)c(OC)cc2N)n[nH]c1=S [Example 7, 5-(2-amino-4,5-dimethoxyphenyl)-4-ethyl-2,4-dihydro-[1,2,4]triazol-3-thione] |  | 7100 |  |
| CCn1c(-c2ccc(OC)cc2)n[nH]c1=S [Example 11, 5-(4-methoxyphenyl)-4-ethyl-2,4-dihydro-[1,2,4]triazol-3-thione] |  | 1600 | 32.2 |
| CCn1c(-c2ccc(Cl)cc2Cl)n[nH]c1=S [Example 12, 5-(2,4-chlorophenyl)-4-ethyl-2,4-dihydro-[1,2,4]triazol-3-thione] |  | 2100 | 59.4 |
| CCn1c(-c2ccc(OC)c(OC)c2)n[nH]c1=S [Example 16, 5-(3,4-dimethoxyphenyl)-4-ethyl-2,4-dihydro-[1,2,4]triazol-3-thione] |  | 3100 | 62.2 |
| Cc1ccccc1-c1n[nH]c(=S)n1-c1ccccc1 [Example 22, 5-(2-methylphenyl)-2,4-dihydro-4-phenyl-3H-[1,2,4]-triazol-3-thione] |  | 200 |  |
| Sc1nnc(-c2ccccc2)n1-c1ccccc1 [Example 23, 2,4-dihydro-4,5-diphenyl-3H-[1,2,4]-triazol-3-thione] |  | 1100 | 21.4 |
| COc1ccccc1-c1n[nH]c(=S)n1-c1ccccc1 [Example 24, 5-(2-methoxyphenyl)-2,4-dihydro-4-phenyl-3H-[1,2,4]-triazol-3-thione] |  | 2500 |  |
| Sc1nnc(-c2ccccc2)n1Cc1ccccc1 [Example 25, 2,4-dihydro-5-phenyl-4-(phenylmethyl)-3H-[1,2,4]-triazol-3-thione] |  | 8100 |  |
| COc1ccc(-c2n[nH]c(=S)n2-c2ccccc2)cc1OC [Example 26, 5-(3,4-dimethoxyphenyl)-2,4-dihydro-4-phenyl-3H-1,2,4-triazol-3-thione] |  | 800 |  |
| Oc1ccc(-c2n[nH]c(=S)n2-c2ccccc2)cc1 [Example 27, 5-(4-hydroxyphenyl)-2,4-dihydro-4-phenyl-3H-[1,2,4]-triazol-3-thione] | 6 |  |  |
| COc1cccc(-c2n[nH]c(=S)n2-c2ccccc2)c1 [Example 28, 5-(3-methoxyphenyl)-2,4-dihydro-4-phenyl-3H-[1,2,4]-triazol-3-thione] | 60 |  |  |
| Oc1ccc(-c2n[nH]c(=S)n2Cc2ccccc2)cc1 [Example 29, 5-(4-hydroxyphenyl)-2,4-dihydro-4-phenylmethyl-3H-[1,2,4]-triazol-3-thione] | 42 |  |  |
| Nc1ccc(-c2n[nH]c(=S)n2-c2ccccc2)cc1 [Example 31, 5-(4-aminophenyl)-2,4-dihydro-4-phenyl-3H-[1,2,4]-triazol-3-thione] | 15 |  |  |
| COc1ccc(-c2n[nH]c(=S)n2C)cc1OC [Example 32, 5-(3,4-dimethoxyphenyl)-2,4-dihydro-4-methyl-3H-[1,2,4]-triazol-3-thione] |  | 1500 | 21.6 |
| COc1ccc(-c2n[nH]c(=S)n2-c2ccccc2)cc1 [Example 33, 5-(4-methoxyphenyl)-2,4-dihydro-4-phenyl-3H-[1,2,4]-triazol-3-thione] |  | 4100 |  |
| S=c1nc(-c2ccccc2)[nH][nH]1 [Example 34, 1,2-dihydro-5-phenyl-3H-[1,2,4]-triazol-3-thione] | 58 |  |  |
| Nc1ccccc1-c1n[nH]c(=S)n1-c1ccccc1 [Example 35, 5-(aminophenyl)-2,4-dihydro-4-phenyl-3H-[1,2,4]-triazol-3-thione] | 24 |  |  |
| CCn1c(-c2ccccc2N)n[nH]c1=S [Example 36, 5-(2-aminophenyl)-4-ethyl-2,4-dihydro-[1,2,4]triazol-3-thione] |  | 400 | 53.7 |
| CNc1ccccc1-c1n[nH]c(=S)n1-c1ccccc1 [Example 37, 5-(2-methylaminophenyl)-4-phenyl-2,4-dihydro-[1,2,4]triazol-3-thione] | 7 |  |  |
| Cn1c(-c2ccccc2N)n[nH]c1=S [Example 38, 5-(2-Aminophenyl)-2,4-dihydro-4-methyl-4H-[1,2,4]triazol-3-thione] | -0.1 |  | 51.2 |
| Nc1ccccc1-c1n[nH]c(=S)n1N [Example 39, 4-Amino-5-(2-aminophenyl)-2,4-dihydro-3H-[1,2,4]triazol-3-thione] | 57 |  |  |
